For data set [1], the target named is T1, recombinant human CB1 receptors (Homo sapiens, UniProt P21554).
T1 construct: expressed in transfected cells; host or cells: HEK293 cells
The experiment in a line: Binding to recombinant human CB1 receptors ([3H]-SR-141716A displacement, HEK293 membranes). The following applies: [3H]-SR-141716A 1 nM; membranes of HEK293 cells expressing hCB1; Ki from IC50 by Cheng-Prusoff. On the procedure:
The binding of compounds of Formula I to recombinant human CB1 receptors was determined in vitro by standard methods, with reference to the procedure described by Rinaldi-Carmona et al. (Rinaldi-Carmona, M., Pialot, F., Congy, C., Redon, E., Bart, F., Bachy, A., Breliere, J. C., Soubre, P., LeFur, G., Life Sci. 1996, 58(15), 1239-1247). Membranes were prepared from HEK293 cells expressing recombinant hCB1 receptors. Binding assays are performed in a total volume of 250 μL, containing [^3H]-SR-141716A (1 nM final concentration), membranes and test compound. Non-specific binding is determined using CP55,940 (10 μM). Serial dilutions are performed starting from test compounds as 10 mM solutions in DMSO. Compounds are tested over the concentration range 10^−10 M to 10^−5 M. Ki values are calculated from IC50 values using the Cheng-Prusoff equation.

T1 sequence (P21554 whole entry): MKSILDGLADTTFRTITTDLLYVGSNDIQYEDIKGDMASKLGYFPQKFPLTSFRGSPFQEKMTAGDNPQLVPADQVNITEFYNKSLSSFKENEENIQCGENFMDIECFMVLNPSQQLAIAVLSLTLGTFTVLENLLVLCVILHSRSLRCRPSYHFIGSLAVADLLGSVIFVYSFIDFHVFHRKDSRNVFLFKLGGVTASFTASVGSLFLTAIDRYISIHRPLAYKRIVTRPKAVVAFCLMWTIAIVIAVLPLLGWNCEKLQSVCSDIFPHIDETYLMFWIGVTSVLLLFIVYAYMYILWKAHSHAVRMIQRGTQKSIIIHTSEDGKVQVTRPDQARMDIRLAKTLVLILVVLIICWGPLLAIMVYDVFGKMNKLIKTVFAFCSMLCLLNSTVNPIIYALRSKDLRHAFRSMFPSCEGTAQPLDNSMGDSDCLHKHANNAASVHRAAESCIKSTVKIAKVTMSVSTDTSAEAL

For `C=CCNC(=O)N1CC(OC(c2ccc(Cl)cc2)c2ccc(Cl)cc2)C1` [Example 6, 3-(Bis(4-chlorophenyl)methoxy)-N-(2-propenyl)azetidine-1-carboxamide], the Ki in data set [1] is 0.285 µM.
In turn, `C[C@@H](O)CNC(=O)N1CC(OCc2ccc(Cl)cc2)C1` [Example 36] registered a melting point of 76 to 78 °C.
For `CCC(OC1CN(C(N)=O)C1)c1cccc(C(F)(F)F)c1` (stereo not shown) [Example 42], the melting point fell in the range of 110.5 to 112 °C.
In turn, `NC(=O)N1CC(OCc2cccc(Cl)c2)C1` [Example 44, 3-((3-chlorophenyl)methoxy)-azetidine-1-carboxamide] showed a melting point of 163 to 165.5 °C.

These data come from patent publication US20060276452A1, “Use of azetidinecarboxamide derivatives in therapy” (VERNALIS RESEARCH LIMITED, priority 2003, published 2006).
